Results published in ChEMBL document CHEMBL3112430, “Biological evaluation of new antitumor taxoids: alteration of substitution at the C-7 and C-10 of docetaxel” (2014).
Active and inactive are the calls of the source. The rule behind the calls is not given here.

Columns and labels:
Format in all cases: functional
MOLT-4 = test: Growth inhibition of human MOLT4 cells by MTT assay
[1] = Growth inhibition of human SGC7901 cells by MTT assay; conditions: SGC-7901
Huh-7 = test: Growth inhibition of human HuH7 cells by MTT assay
A549 [2] = test: Growth inhibition of human A549 cells by MTT assay
DU-145 = test: Growth inhibition of human DU145 cells by MTT assay
MCF7 = test: Growth inhibition of human MCF7 cells by MTT assay
[3] = Growth inhibition of human Bel7402 cells by MTT assay; conditions: Bel-7402
[4] = Growth inhibition of human BGC823 cells by MTT assay; conditions: BGC-823
[5] = Growth inhibition of human U937 cells by MTT assay; conditions: U-937
HL-60 = test: Growth inhibition of human HL60 cells by MTT assay
A-431 = test: Growth inhibition of human A431 cells by MTT assay
A549 [6] = test: Ratio of taxol GI50 to compound GI50 for human A549 cells
HeLa = test: Growth inhibition of human HeLa cells by MTT assay
[7] = (§1) Growth inhibition of human HT1080 cells by MTT assay; conditions: HT-1080
[8] = Growth inhibition of human PANC1 cells by MTT assay; conditions: PANC-1
K562 = test: Growth inhibition of human K562 cells by MTT assay
HT-1080 = test: as §1

Row | Compound | GI50 (MOLT-4) | GI50 [1] | GI50 (Huh-7) | GI50 (A549 [2]) | GI50 (DU-145) | GI50 (MCF7) | GI50 [3] | GI50 [4] | GI50 [5] | GI50 (HL-60) | GI50 (A-431) | RatioGI50 (A549 [6]) | GI50 (HeLa) | GI50 [7] | GI50 [8] | GI50 (K562) | GI50 (HT-1080)
1 | CCOCCO[C@H]1C(=O)[C@]2(C)[C@@H](OCCOCC)C[C@H]3OC[C@@]3(OC(C)=O)[C@H]2[C@H](OC(=O)c2ccccc2)[C@]2(O)C[C@H](OC(=O)[C@H](O)[C@@H](NC(=O)OC(C)(C)C)c3ccccc3)C(C)=C1C2(C)C | 268 nM | 2.27 nM | 87.5 nM | 1.94 nM | 3.69 nM | 1.19 nM | 1.56 nM | 816 nM | 1.95 nM | 63.7 nM | 2.27 nM | 9 | 2.53 nM | 2.83 nM | 150 nM | 483 nM | 
2 | CC(=O)O[C@@]12CO[C@@H]1C[C@H](OCCO)[C@@]1(C)C(=O)[C@H](OCCO)C3=C(C)[C@@H](OC(=O)[C@H](O)[C@@H](NC(=O)OC(C)(C)C)c4ccccc4)C[C@@](O)([C@@H](OC(=O)c4ccccc4)[C@H]21)C3(C)C |  | 92.5 nM | 113 nM | 6.76 nM | 413 nM | 7.41 nM | 56 nM | 128 nM | 7.41 nM | 118 nM | 38.5 nM |  | 6.65 nM | 472 nM | 296 nM | 470 nM | 
3 | COCO[C@H]1C(=O)[C@]2(C)[C@@H](OCOC)C[C@H]3OC[C@@]3(OC(C)=O)[C@H]2[C@H](OC(=O)c2ccccc2)[C@]2(O)C[C@H](OC(=O)[C@H](O)[C@@H](NC(=O)OC(C)(C)C)c3ccccc3)C(C)=C1C2(C)C |  | 966 nM | 257 nM | 563 nM | 2.09 nM | 615 nM | 661 nM | 80.5 nM | 6.15 nM | 1230 nM | 275 nM |  | 1.24 nM |  | 1.89 nM | inactive | inactive
4 | CC(=O)O[C@H]1C(=O)[C@@]2(C)[C@H]([C@H](OC(=O)c3ccccc3)[C@]3(O)C[C@H](OC(=O)[C@H](O)[C@@H](NC(=O)c4ccccc4)c4ccccc4)C(C)=C1C3(C)C)[C@]1(OC(C)=O)CO[C@@H]1C[C@@H]2O [PACLITAXEL] | 2.23 nM | 3.09 nM | 207 nM | 18.7 nM | 5.57 nM | 1.29 nM | 1.79 nM | 3.6 nM | 2.39 nM |  | 2.35 nM |  | 3.21 nM | 3.89 nM | 2.41 nM | 7.01 nM | 
5 | CO[C@H]1C(=O)[C@]2(C)[C@@H](OC)C[C@H]3OC[C@@]3(OC(C)=O)[C@H]2[C@H](OC(=O)c2ccccc2)[C@]2(O)C[C@H](OC(=O)[C@H](O)[C@@H](NC(=O)OC(C)(C)C)c3ccccc3)C(C)=C1C2(C)C [CABAZITAXEL] |  | 0.355 nM |  | 1.48 nM | 1.43 nM | 1.19 nM |  | 467 nM | 0.539 nM | 4.74 nM | 1.48 nM |  | 1.8 nM | 1.41 nM | 1.28 nM | 4.19 nM | 
6 | COCCO[C@H]1C(=O)[C@]2(C)[C@@H](OCCOC)C[C@H]3OC[C@@]3(OC(C)=O)[C@H]2[C@H](OC(=O)c2ccccc2)[C@]2(O)C[C@H](OC(=O)[C@H](O)[C@@H](NC(=O)OC(C)(C)C)c3ccccc3)C(C)=C1C2(C)C | 749 nM | 68.2 nM | 227 nM | 3.1 nM | 982 nM | 345 nM | 57.3 nM | 2 nM | 38.8 nM | 57.9 nM | 6.73 nM |  | 407 nM | 480 nM | 295 nM | 936 nM | 
7 | CC(=O)O[C@@]12CO[C@@H]1C[C@H](OC(=O)C(C)(CO)CO)[C@@]1(C)C(=O)[C@H](OC(=O)C(C)(CO)CO)C3=C(C)[C@@H](OC(=O)[C@H](O)[C@@H](NC(=O)OC(C)(C)C)c4ccccc4)C[C@@](O)([C@@H](OC(=O)c4ccccc4)[C@H]21)C3(C)C | 263 nM | 558 nM | 104 nM | 159 nM | 65.1 nM | 130 nM | 11.9 nM | 984 nM | 198 nM | 376 nM | 1.25 nM |  | 225 nM | 166 nM | 170 nM | 554 nM | 
